Experimental data from article PMC9653966, “Simultaneous Degradation Study of Isomers in Human Plasma by HPLC-MS/MS and Application of LEDA Algorithm for Their Characterization” (International Journal of Molecular Sciences, 2022).
Read-outs that look alike come from different tables or passages of the source.

Legend:
[1] = Chemical stability test in human plasma (enzymatic hydrolysis, HPLC-MS/MS); format: in vitro ADME; settings: for LEDA195–221 k ± 2SD (degradation rate): LEDA195–221 matrix (Table S4); for behaviour towards plasma enzymes (hydrolysis or stable) / half-life at 1 µM: human plasma; for behaviour towards plasma enzymes (hydrolysis or stable): all sample sets (pure isomer and mixture), up to 120 min at 37 °C; for half-life at 1 µM: human
Experimental: The present investigation was carried out to evaluate the variation of hydrolytic activity of the human plasma enzymatic system when two potential substrates were simultaneously present. […] Therefore, the human plasma sample solutions, prepared with a mixture of isomers, presented both a substrate and a potential interference, which could influence the enzyme functionality. To correctly monitor this process, it must be possible to distinguish each isomer present in the sample, quantify it with the proper calibration curve and plot its degradation profile. The LEDA algorithm was used to support this investigation and to test its quali-quantitative ability in a complex matrix of human plasma samples. The experimental plan involved the analysis of three series of human plasma samples for each couple of isomers: two series of samples were added to a pure isomer, to check the activity of the plasma enzyme system without interferences, and the last series of samples were spiked with the equimolar mixture of isomers. The series of samples were prepared, as described in Section 4.6 and analyzed with the proper HPLC-MS/MS method. The acquired data were processed with the conventional quantitative method for the series containing the single isomers, and with the LEDA approach for the samples spiked with the mixture of isomers. The samples containing a single isomer were worked out by the integration of quantitative Pi signal and the estimation of PAR value by dividing with IS abundance, and quantitative determination of the analyte in the sample was obtained by using the proper calibration curve. In contrast, in the samples spiking with the mixture of isomers, each proposed LEDA matrix recognized the relative concentration of the isomers present in the sample. Therefore, their abundance in the precursor ion signal (or Ri signal) were assigned, each PAR value calculated by dividing with the IS abundance, and quantitative determination of the analytes in the sample were performed by using the respective precursor ion calibration curve. In Figure 6, an example of the degradation plots of the mixtures of the ELF94 and ELF96 isomers is shown, while all the degradation profiles are reported in the Supplementary Material (Figures S20–S25).
Each sample was prepared by adding 10 µL of proper spiked solution to 100 µL of human plasma matrix in a 1.5 mL microcentrifuge tube. The obtained solution corresponds to 1 μM of analyte that undergo degradation study. Each set of samples was prepared in triplicate and incubated for four different times: 0, 30, 60, and 120 min at 37 °C. Therefore, each stability panel of studied analyte was represented by a batch of 12 samples (4 incubation times, 3 replicates). After the incubation, 300 µL of IS solution was added to the sample and then centrifuged (room temperature for 5 min at 800× g). Then, the supernatant was transferred to autosampler vials, dried under a gentle stream of nitrogen and dissolved in 1.0 mL of 10 mM of formic acid in mQ water:acetonitrile 80:20 solution [23, 24, 25, 27, 28, 29, 30]. Each sample batch included the blank samples of human plasma matrix, prepared as described above, with the addition only of the IS solution. Thus, the analysis of the blank samples can check any interference in the analyte MRM signals due to the matrix components. Three sets of six replicates for each analyte were prepared to evaluate the matrix effect (ME) and the analyte recovery (RE) of the proposed method. The same evaluation was extended to the IS to verify its reliability as a quantitative reference. Set A was prepared by mixing 10 µL of spiked solution with 300 µL of IS solution. Set B was obtained by mixing 100 µL of plasma with 300 µL of acetonitrile and, after centrifugation and separation of the supernatant, by adding 10 µL of spiked solution to each analyte or 300 µL of IS solution. […]

[2] = set-up: method as in PMID 27882889, PMID 29536775, PMID 35753165, PMID 30947123; settings: check of hydrolytic activity of the plasma pool; own degradation plot comparable to literature value; cited from earlier work
[3] = human plasma spiked with equimolar mixture of the isomer pair, 1 μM each, 37 °C, LEDA195–221 matrix
[4] = human plasma spiked with isomers mixture
[5] = human plasma spiked with isomers mixture, LEDAall matrix (Table S4)
[6] = human plasma spiked with the pure isomer, 1 μM, 37 °C, 0-120 min, conventional quantitative processing
[7] = human plasma spiked with equimolar mixture of the isomer pair, 1 μM each, 37 °C, LEDA195–221 matrix, read-out: Mix t1/2 ± 2SD
[8] = human plasma spiked with isomers mixture, LEDAall matrix (Table S4), read-out: LEDAall t1/2 ± 2SD
[9] = human plasma spiked with the pure isomer, 1 μM, 37 °C, 0-120 min, conventional quantitative processing, read-out: Pure Isomer t1/2 ± 2SD

SMILES	Mix k ± 2SD (degradation rate) [1, 3]	LEDA195–221 k ± 2SD (degradation rate) [1, 4]	LEDAall k ± 2SD (degradation rate) [1, 5]	Pure Isomer k ± 2SD (degradation rate) [1, 6]	behaviour towards plasma enzymes (hydrolysis or stable) [1]	half-life at 1 µM [1, 7]	half-life at 1 µM [1, 8]	half-life at 1 µM [1, 9]	t1/2 of the reference compound in human plasma [2]
COc1cc(/C=C/C(=O)OCCCN(C)CCCCCCOC(=O)c2cc(OC)c(OC)c(OC)c2)cc(OC)c1OC [ELF94]	−0.023 ± 0.005 ln(μM)/min	−0.023 ± 0.005 ln(M)/min	−0.023 ± 0.003 ln(M)/min	−0.014 ± 0.001 ln(μM)/min	hydrolysis	34 ± 14 min	34 ± 15 min	49 ± 18 min	–
COc1cc(/C=C/C(=O)OCCCCCCN(C)CCCOC(=O)c2cc(OC)c(OC)c(OC)c2)cc(OC)c1OC [ELF96]	<0.006 ln(μM)/min	< 0.006 ln(M)/min	< 0.006 ln(M)/min	<0.006 ln(μM)/min	remained constant	> 120 min	> 120 min	> 120 min	–
COc1cc(/C=C/C(=O)OCCCN(C)CCCCCOC(=O)c2cc(OC)c(OC)c(OC)c2)cc(OC)c1OC [FRA76]	−0.019 ± 0.003 ln(μM)/min	−0.019 ± 0.003 ln(M)/min	−0.019 ± 0.005 ln(M)/min	−0.017 ± 0.001 ln(μM)/min	hydrolysis	32 ± 18 min	32 ± 19 min	43 ± 16 min	–
COc1cc(/C=C/C(=O)OCCCCCN(C)CCCOC(=O)c2cc(OC)c(OC)c(OC)c2)cc(OC)c1OC [GDE5]	<0.006 ln(μM)/min	< 0.006 ln(M)/min	< 0.006 ln(M)/min	<0.006 ln(μM)/min	remained constant	> 120 min	> 120 min	> 120 min	–
CCOC(=O)C(C)c1cccc(C(=O)c2ccccc2)c1 (stereo not drawn) [KEE, Ketoprofen ethyl ester]	–	–	–	–	–	–	–	–	≤ 120 min
